This passage reports target mRNA inhibition results from the OligoGym collection.

After the bases stand the sugars from the 5' end (letter, count) and the backbone: PS all phosphorothioate, else s phosphorothioate and o phosphodiester by linkage. Methylation of C is not given here. e = 2'-O-(2-methoxyethyl) (MOE); k = constrained ethyl (cEt); d = 2'-deoxy (DNA); m = 2'-O-methyl

The series concerns the target HSD17B13. Conditions: ASO, HepaRG.

Take GAGTTCTACACCACAC (sugars k3 d10 k3, PS): the target mRNA inhibition runs as follows: (0.02 µM) 0%; (0.078 µM) 19%; (0.313 µM) 32%; (1 µM) 76%; (1.25 µM) 65%; (5 µM) 87%. Where the note is “1 µM”, TATCAGACTTCTTACG (sugars k3 d10 k3, PS) gave a target mRNA inhibition of 59%. For GGTAAGGAATCCCTTC (sugars k3 d10 k3, PS), the target mRNA inhibition (1 µM) amounted to 43%. Where the note is “1 µM”, “GTTGAGATAAAGCTGC (sugars k3 d1 m1 d8 k3, PS)” returned a target mRNA inhibition of 51%.

In the case of GCAGCATTGATTCGAA (sugars k3 d10 k3, PS), where the note is “1 µM”, the target mRNA inhibition stood at 63%. In the case of “GATCTCTTAGCTGTGC (sugars kkdddddddddkekek, PS)”, the target mRNA inhibition (1 µM) is 45%.

Take “TGTAAGAGTCAGTATC (sugars kkdddddddddkekek, PS)”: where the note is “1 µM”, the target mRNA inhibition was 35%.

For the setting “1 µM”, “ACCGUTTTGGGCTAAT (sugars k3 d1 m1 d8 k3, PS)” registered a target mRNA inhibition of 65%. Sequence “GTTAGAATAGTCTTCA (sugars k3 d9 k3 e1, PS)” showed a target mRNA inhibition (1 µM) of 71%. Under “1 µM”, CCTGTGTTAGCTTTAA (sugars k3 d10 k3, PS) showed a target mRNA inhibition of 67%. As for ACCAATATGCTCTGTC (sugars k3 d10 k3, PS), the target mRNA inhibition was 19% (0.02 µM); 5% (0.078 µM); 41% (0.313 µM); 67% (1 µM); 78% (1.25 µM); 97% (5 µM).

TATGTCCAGGTTGAGA (sugars k3 d10 k3, PS) returned a target mRNA inhibition (1 µM) of 64%. The same measure, in the same setting: to TTATAGACTGGGTAGG (sugars k3 d10 k3, PS) belongs 51%; to “CTGCTGCTAGTGCCAA (sugars kkdddddddddkekek, PS)”, 44%; to ATGACATAGACATGTG (sugars k3 d10 k3, PS), 23%. ATCCATATTCCCTGAT (sugars k3 d10 k3, PS) displayed a target mRNA inhibition (1 µM) of 26%.

Where the note is “1 µM”, GCAATTTACTTTCAGC (sugars k3 d10 k3, PS) displayed a target mRNA inhibition of 66%. The same measure, in the same setting: to CTGAAAAGCCCTATTC (sugars k3 d10 k3, PS) belongs 11%. Take TTCTTATGTAATAGCC (sugars k3 d10 k3, PS): the target mRNA inhibition was 16% (0.02 µM); 39% (0.078 µM); 66% (0.313 µM); 71% (1 µM); 86% (1.25 µM); 96% (5 µM). As to TCCGTTATAAGTTTCA (sugars k3 d10 k3, PS), the target mRNA inhibition (1 µM) amounted to 65%. On the same count and under the same terms, the same measure for “AGGCTAGGGAAATCTT (sugars k3 d9 k3 e1, PS)”: 55%; for GTGTAGTTTGGTGGGC (sugars k3 d10 k3, PS): 33%; for GAACAGTCTTAAACCT (sugars k3 d10 k3, PS): 64%.

GAGATTACCCCTGGCT (sugars k3 d10 k3, PS) returned a target mRNA inhibition (1 µM) of 72%. CCCCTAAGTTATTATC (sugars k3 d10 k3, PS): the target mRNA inhibition (1 µM) was determined as 33%. With CAGTTTTCCTCATGAT (sugars k3 d10 k3, PS), the target mRNA inhibition (1 µM) is 65%.

As to “TGATATTCTGTGGCAT (sugars kkdddddddddkekek, PS)”, the target mRNA inhibition (1 µM) was 46%.

For “TCTTAAACCTTCCCTG (sugars k3 d9 k3 e1, PS)”, under “1 µM”, the target mRNA inhibition was determined as 38%.

GAGAAATCTAAGAACC (sugars k3 d10 k3, PS): the target mRNA inhibition (1 µM) turned out to be 42%.

On to AGTACCAAGACACTAA (sugars k3 d10 k3, PS), for which the target mRNA inhibition (1 µM) turned out to be 66%. For the sequence TAAACATAGGCTTAGT (sugars k3 d10 k3, PS), under “1 µM”, the target mRNA inhibition was determined as 34%. In the case of “CCTATATACATCCAAG (sugars kkdddddddddkekek, PS)”, the target mRNA inhibition (1 µM) was determined as 61%.

Sequence AACTCTAAATACCCTT (sugars k3 d10 k3, PS) registered a target mRNA inhibition (1 µM) of 28%. The same measure, in the same setting: the same measure for “TCCATAATAATAGCTC (sugars k3 d9 k3 e1, PS)”: 66%. The same measure, in the same setting: the same measure for “TGTAATAGCCAGTACA (sugars kkdddddddddkekek, PS)”: 45%; for “CTGCATTAATGCCACC (sugars kkdddddddddkekek, PS)”: 6%; for TCTGATGTCAGACCTC (sugars k3 d10 k3, PS): 42%. For ACTAATCTCAGTACTC (sugars k3 d10 k3, PS), under “1 µM”, the target mRNA inhibition came to 45%. The same measure, in the same setting: the same measure for “CTCAGGCTGTAAGAGT (sugars kkdddddddddkekek, PS)”: 10%. Turning to ATTCATAAACATAGGC (sugars k3 d10 k3, PS), the target mRNA inhibition (1 µM) amounted to 36%. On the same count and under the same terms, the same measure for GGCTAGGGAAATCTTT (sugars k3 d10 k3, PS): 57%; for TACTATTCTCCAACTC (sugars k3 d10 k3, PS): 47%. On to ATAGTTATCTTCTCAC (sugars k3 d10 k3, PS), for which the target mRNA inhibition (1 µM) worked out at 48%. Sequence GCTATAGTAATTGCTA (sugars k3 d10 k3, PS) showed a target mRNA inhibition (1 µM) of 33%.

“AAGACATTCTAGCCTG (sugars k3 d9 k3 e1, PS)” returned a target mRNA inhibition (1 µM) of 40%.

For the sequence “GTCTTGATGTAGTGGG (sugars kkdddddddddkekek, PS)”, the target mRNA inhibition (1 µM) turned out to be 18%.

As for “TAAAATAGAGTCGGTC (sugars k3 d1 m1 d8 k3, PS)”, the target mRNA inhibition (1 µM) was 52%. Still for that read-out and setting: the same measure for AACGACTCCAAGTAGG (sugars k3 d10 k3, PS): 27%; for CCTCGATCCTATATAC (sugars k3 d10 k3, PS): 31%. Turning to TAGTACCAAGACACTA (sugars k3 d10 k3, PS), where the note is “1 µM”, the target mRNA inhibition came to 27%. ACAGGTAATTAATCTT (sugars k3 d10 k3, PS) registered a target mRNA inhibition (1 µM) of 39%. Same read-out and setting: to CAATATGGGATGAGGT (sugars k3 d10 k3, PS) belongs 62%; to “GATGTAGTGGGAGTCG (sugars kkdddddddddkekek, PS)”, 38%; to “CTACACTAATATTGAG (sugars kkdddddddddkekek, PS)”, 5%.

TTACCAGAGCATTCAT (sugars k3 d10 k3, PS): the target mRNA inhibition (1 µM) was 50%. Still for that read-out and setting: the same measure for ATATACATCAACTCCT (sugars k3 d10 k3, PS): 43%. Under “1 µM”, GAATCATGATTGAATT (sugars k3 d10 k3, PS) returned a target mRNA inhibition of 39%. GTTCTTATCCACACCT (sugars k3 d10 k3, PS) registered a target mRNA inhibition (1 µM) of 57%. The same measure, in the same setting: to “TAGCCAGTACAGTTCC (sugars kkdddddddddkekek, PS)” belongs 57%; to GTAAATGATGGCAGGA (sugars k3 d10 k3, PS), 34%; to CTGTCATAAAGGTGGG (sugars k3 d10 k3, PS), 59%. Take “AAGATACCCAGGTTGC (sugars k3 d9 k3 e1, PS)”: the target mRNA inhibition (1 µM) came out at 69%. Same read-out and setting: the same measure for “TGATUGAGTTCTCCAC (sugars k3 d1 m1 d8 k3, PS)”: 4%.
